The values below come from PMC2764847, “Dual Localized AtHscB Involved in Iron Sulfur Protein Biogenesis in Arabidopsis” (PLoS ONE, 2009).

This experiment concerns the target T1, AtHscA1 (Arabidopsis thaliana, UniProt Q8GUM2).
T1 construct: gene HSP70-9
T1 sequence (Q8GUM2 47-682): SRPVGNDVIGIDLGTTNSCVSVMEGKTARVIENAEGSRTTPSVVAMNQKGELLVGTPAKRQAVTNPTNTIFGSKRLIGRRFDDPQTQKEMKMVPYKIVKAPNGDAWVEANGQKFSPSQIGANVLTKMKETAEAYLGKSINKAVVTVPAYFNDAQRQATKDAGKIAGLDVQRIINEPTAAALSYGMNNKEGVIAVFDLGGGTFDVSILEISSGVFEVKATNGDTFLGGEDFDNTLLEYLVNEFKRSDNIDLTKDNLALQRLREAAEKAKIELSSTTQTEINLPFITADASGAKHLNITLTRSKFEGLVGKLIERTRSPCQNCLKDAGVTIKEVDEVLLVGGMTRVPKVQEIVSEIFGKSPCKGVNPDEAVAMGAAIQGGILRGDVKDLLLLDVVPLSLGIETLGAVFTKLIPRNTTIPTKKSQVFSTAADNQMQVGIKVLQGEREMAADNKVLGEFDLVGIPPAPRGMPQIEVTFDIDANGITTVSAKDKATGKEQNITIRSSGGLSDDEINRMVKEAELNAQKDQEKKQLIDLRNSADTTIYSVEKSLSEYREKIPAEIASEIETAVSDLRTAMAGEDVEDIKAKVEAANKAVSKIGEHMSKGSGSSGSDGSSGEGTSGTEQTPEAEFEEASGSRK
The experiment is described as follows: ATPase assay, [gamma-32P]ATP hydrolysis, TLC and phosphorimager. Particulars: 50 mM Tris-HCl pH 7.4, 50 mM NaCl, 10 mM KCl, 0.1 mM EDTA, 1.5 mM DTT; 2 µM protein; no co-chaperone; labelled compound. It is filed as biochemical.

As to `Nc1ncnc2c1ncn2[C@@H]1O[C@H](COP(=O)(O)OP(=O)(O)OP(=O)(O)O)[C@@H](O)[C@H]1O` [ATP], the Km was 49.5 µM.
